The values below come from patent US12252481B2, “Anti-viral compounds” (Aligos Therapeutics, Inc., priority 2021, dated 2025).

One may read the IC50 as the point on the concentration scale where inhibition reaches its midpoint. What is called EC50 is the concentration at which the effect is half-maximal.

Assay [1] addresses T1, SARS-Cov-2 3CLpro (Severe acute respiratory syndrome coronavirus 2, UniProt P0DTD1).
T1 construct: 3CLpro and HRV3C was added using a Multidrop Combi
As to the kind of experiment: biochemical. The conditions noted are these: 3CLpro, 30 mins preincubation, SAMDI-MS; read-out: SARS-Cov-2 IC50 (class).

The target of assay [2] is T2, HRV3C (Human rhinovirus 14, UniProt P03303).
T2 construct: 3CLpro and HRV3C was added using a Multidrop Combi
T2 sequence (P03303 1538-1719): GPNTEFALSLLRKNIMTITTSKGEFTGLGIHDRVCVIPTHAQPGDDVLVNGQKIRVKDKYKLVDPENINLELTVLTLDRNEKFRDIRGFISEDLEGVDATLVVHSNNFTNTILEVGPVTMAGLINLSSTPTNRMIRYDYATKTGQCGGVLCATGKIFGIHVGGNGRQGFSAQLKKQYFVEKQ
Nature of the assay: biochemical. Also noted: species or system HRV. The note with it: HRV3C, 30 mins preincubation, SAMDI-MS; read-out: HRV IC50 (bound).

In assay [3] the test system is human beta-coronavirus OC43. Nature of the assay: OC43 coronavirus antiviral assay in HeLa cells (cytopathic effect, cell-titer-glo). The class given is cell-based. The conditions noted are these: Betacoronavirus 1, OC43, HeLa, 144 h, 6 days at 33° C., read-out: EC50 (class). Background: Damage to the host cells serves as the signal in cytopathic effect assays.
Assay [4] has as its system B.1.1.7 lineage SARS-CoV-2. As to the kind of experiment: microbe, parasite or virus in culture. The conditions noted are these: Severe acute respiratory syndrome coronavirus 2, 96 h; read-out: A549-dual_ACE2_TMPRSS2 (EC50). It counts as cell-based.

As for `[2H]C([2H])([2H])C([C@H](NC(=O)C(F)(F)F)C(=O)N1C[C@H]2[C@@H]([C@H]1C(=O)N[C@H](C#N)C[C@@H]1CCNC1=O)[C@H]1C=C[C@@H]2C1)(C([2H])([2H])[2H])C([2H])([2H])[2H]` [Compound 124], the IC50 was below 0.02 µM in assay [1] and above 0.5 µM in assay [2].
Regarding `CC(C)(C)[C@H](NC(=O)C(F)(F)F)C(=O)N1C[C@@H]2[C@H]3C[C@H](C[C@@H]3F)[C@@H]2[C@H]1C(=O)N[C@H](C#N)C[C@@H]1OCCNC1=O` [Compound 119], the concentration giving a half-maximal response (EC50) in assay [3] and in assay [4] was 0.1 to 1 µM in each case. Further, the 50% inhibitory concentration (IC50) in assay [1] is 0.02 to 0.2 µM; in assay [2] it was above 0.5 µM.
As for `C=C(C)C(C)(C)[C@H](NC(=O)C(F)(F)F)C(=O)N1C[C@H]2[C@@H]([C@H]1C(=O)N[C@H](C#N)C[C@@H]1CCNC1=O)[C@H]1C=C[C@@H]2C1` [Example 97], the EC50 in assay [3] and in assay [4] was below 0.1 µM throughout. Further, the figures for the IC50 in assay [1] and in assay [2] were below 0.02 µM and above 10 µM, respectively.
With `CC(C)(C)[C@H](NC(=O)C(F)(F)F)C(=O)N1C[C@H]2[C@@H]([C@H]1C(=O)N[C@H](C#N)C[C@@H]1Oc3ccncc3NC1=O)[C@H]1C=C[C@@H]2C1(F)F` [Compound 111], the half-maximal effective concentration (EC50) in assay [3] was below 0.1 µM; in assay [4], 0.1 to 1 µM. Further, the values for the IC50 in assay [1] and in assay [2] were below 0.02 µM and above 0.5 µM, respectively.
For `CC(C)(C)[C@H](NC(=O)C(F)(F)C(F)(F)F)C(=O)N1C[C@H]2[C@@H]([C@H]1C(=O)N[C@H](C#N)CC1CC3(COC3)NC1=O)[C@H]1C=C[C@@H]2C1` (stereo partly drawn) [Compound 107, (1R,2S,3S,6R,7S)—N-[(1S)-1-cyano-2-{6-oxo-2-oxa-5-azaspiro[3.4]octan-7-yl}ethyl]-4-[(2S)-3,3-dimethyl-2-(2,2,3,3,3-pentafluoropropanamido)butanoyl]-4-azatricyclo[5.2.1.0^{2,6}]dec-8-ene-3-carboxamide], in that order: below 0.1 µM, below 0.1 µM, below 0.02 µM and above 0.5 µM.
For `CC(C)(C)[C@H](NC(=O)CC(F)(F)F)C(=O)N1C[C@H]2[C@@H]([C@H]1C(=O)N[C@H](C#N)C[C@@H]1Oc3ccncc3NC1=O)[C@H]1C=C[C@@H]2C1` [Compound 110, (1S,3aR,4S,7R,7aS)-N-((S)-1-cyano-2-((S)-3-oxo-3,4-dihydro-2H-pyrido[4,3-b][1,4]oxazin-2-yl)ethyl)-2-((S)-3,3-dimethyl-2-(3,3,3-trifluoropropanamido)butanoyl)-2,3,3a,4,7,7a-hexahydro-1H-4,7-methanoisoindole-1-carboxamide], in that order: below 0.1 µM, below 0.1 µM, below 0.02 µM and above 0.5 µM.
For `C[C@@H](OC1CC1)[C@H](NC(=O)C(F)(F)C(F)(F)F)C(=O)N1C[C@H]2[C@@H]([C@H]1C(=O)N[C@H](C#N)C[C@@H]1CCNC1=O)[C@H]1C=C[C@@H]2C1` [Compound 101, (1S,3aR,4S,7R,7aS)-N-((S)-1-cyano-2-((S)-2-oxopyrrolidin-3-yl)ethyl)-2-(O-cyclopropyl-N-(2,2,3,3,3-pentafluoropropanoyl)-L-threonyl)-2,3,3a,4,7,7a-hexahydro-1H-4,7-methanoisoindole-1-carboxamide], in that order: below 0.1 µM, below 0.1 µM, below 0.02 µM and above 0.5 µM.
Turning to `C[C@H]1[C@H]2[C@@H]([C@@H](C(=O)N[C@H](C#N)C[C@@H]3CCNC3=O)N1C(=O)[C@@H](NC(=O)C(F)(F)F)C(C)(C)C)[C@H]1C=C[C@@H]2C1` [Example 93, (1R,2S,3S,5S,6R,7S)—N-[(1S)-1-cyano-2-[(3S)-2-oxopyrrolidin-3-yl]ethyl]-4-[(2S)-3,3-dimethyl-2-(2,2,2-trifluoroacetamido)butanoyl]-5-methyl-4-azatricyclo[5.2.1.0^{2,6}]dec-8-ene-3-carboxamide], the EC50 in assay [3] and in assay [4] was below 0.1 µM each time. The values for the concentration for half-maximal inhibition (IC50) in assay [1] and in assay [2] were below 0.02 µM and above 0.5 µM, respectively.
`CC(C)(C)[C@H](NC(=O)C(F)(F)F)C(=O)N1C[C@H]2[C@@H]([C@H]1C(=O)N[C@H](C#N)C[C@@H]1OCCCNC1=O)[C@H]1C=C[C@@H]2C1` [Compound 121, (1R,2S,3S,6R,7S)—N-[(1S)-1-cyano-2-[(2S)-3-oxo-1,4-oxazepan-2-yl]ethyl]-4-[(2S)-3,3-dimethyl-2-(2,2,2-trifluoroacetamido)butanoyl]-4-azatricyclo[5.2.1.0^{2,6}]dec-8-ene-3-carboxamide]: the concentration for a half-maximal effect (EC50) in assay [3] and in assay [4] was below 0.1 µM each time. In addition, the 50% inhibitory concentration (IC50) in assay [1] was below 0.02 µM; in assay [2], above 0.5 µM.
In the case of `CC(C)(C)[C@H](NC(=O)C(F)(F)F)C(=O)N1C[C@@H]2[C@@H]3C=C[C@@H]([C@H]4C[C@@H]34)[C@@H]2C1C(=O)N[C@H](C#N)C[C@@H]1CCNC1=O` (stereo partly drawn) [Example 88, (3aR,4R,4aR,5aS,6S,6aS)-N-((S)-1-cyano-2-((S)-2-oxopyrrolidin-3-yl)ethyl)-2-((S)-3,3-dimethyl-2-(2,2,2-trifluoroacetamido)butanoyl)-1,2,3,3a,4,4a,5,5a,6,6a-decahydro-4,6-ethenocyclopropa[f]isoindole-1-carboxamide], the EC50 in assay [3] and in assay [4] was 0.1 to 1 µM in each case. Also, the IC50 is below 0.02 µM in assay [1] and above 10 µM in assay [2].
As for `CC(C)(C)[C@H](NC(=O)C(F)(F)F)C(=O)N1C[C@H]2[C@@H]([C@H]1C(=O)N[C@H](C#N)C[C@@H]1OCC3(CC3)NC1=O)[C@H]1C=C[C@@H]2C1` [Compound 120], the EC50 in assay [3] and in assay [4] was below 0.1 µM each time. The IC50 is below 0.02 µM in assay [1] and above 0.5 µM in assay [2].
For `CC(C)(C)[C@H](NC(=O)C(F)(F)C(F)(F)F)C(=O)N1C[C@@H]2[C@H]3C[C@@H]([C@@H]2[C@H]1C(=O)N[C@H](C#N)C[C@@H]1OCCNC1=O)[C@H](F)C3` [Compound 118, (1S,2R,3S,6R,7S,9R)—N-[(1S)-1-cyano-2-[(2S)-3-oxomorpholin-2-yl]ethyl]-4-[(2S)-3,3-dimethyl-2-(2,2,3,3,3-pentafluoropropanamido)butanoyl]-9-fluoro-4-azatricyclo[5.2.1.0^{2,6}]decane-3-carboxamide], the EC50 in assay [3] and in assay [4] was below 0.1 µM in each case. Also, the IC50 was below 0.02 µM in assay [1] and above 0.5 µM in assay [2].
`CC(C)(C)[C@H](NC(=O)C(F)(F)F)C(=O)N1C[C@H]2[C@@H]([C@H]1C(=O)N[C@H](C#N)C[C@@H]1OCCNC1=O)[C@H]1C=C[C@@H]2C1(F)F` [Compound 117]: the EC50 in assay [3] and in assay [4] was below 0.1 µM each time. The half-inhibitory concentration (IC50) in assay [1] was below 0.02 µM; in assay [2] it was above 0.5 µM.
As to `CC(C)(C)[C@H](NC(=O)C(F)(F)Cl)C(=O)N1C[C@H]2[C@@H]([C@H]1C(=O)N[C@H](C#N)C[C@@H]1OCCNC1=O)[C@H]1C=C[C@@H]2C1` [Compound 116], the 50% effective concentration (EC50) in assay [3] and in assay [4] was below 0.1 µM in each case. The values for the half-maximal inhibitory concentration (IC50) in assay [1] and in assay [2] were below 0.02 µM and above 0.5 µM, respectively.
Take `CC(C)(C)[C@H](NC(=O)C(F)(F)F)C(=O)N1C[C@@H]2[C@@H]3CC[C@@H](C3)[C@@H]2[C@H]1C(=O)N[C@H](C#N)CC1CC2(CC(F)(F)C2)NC1=O` (stereo partly drawn) [Compound 104, (1S,2S,3S,6R,7R)—N-[(1S)-1-cyano-2-{2,2-difluoro-6-oxo-5-azaspiro[3.4]octan-7-yl}ethyl]-4-[(2S)-3,3-dimethyl-2-(2,2,2-trifluoroacetamido)butanoyl]-4-azatricyclo[5.2.1.0^{2,6}]decane-3-carboxamide]: the values for the half-maximal effective concentration (EC50) in assay [3] and in assay [4] were 0.1 to 1 µM and below 0.1 µM, respectively. Further, the IC50 in assay [1] was below 0.02 µM; in assay [2], above 0.5 µM.
The like results for `CC(C)([C@H](NC(=O)C(F)(F)F)C(=O)N1C[C@H]2[C@@H]([C@H]1C(=O)N[C@H](C#N)C[C@@H]1CCNC1=O)[C@H]1C=C[C@@H]2C1)C(F)(F)F` [Compound 102a, (1S,3aR,4S,7R,7aS)-N-((S)-1-cyano-2-((S)-2-oxopyrrolidin-3-yl)ethyl)-2-((S)-4,4,4-trifluoro-3,3-dimethyl-2-(2,2,2-trifluoroacetamido)butanoyl)-2,3,3a,4,7,7a-hexahydro-1H-4,7-methanoisoindole-1-carboxamide] were, in that order, below 0.1 µM, below 0.1 µM, below 0.02 µM and above 0.5 µM.
With `CC(C)(C)[C@H](NC(=O)C(F)(F)F)C(=O)N1C[C@H]2[C@@H]([C@H]1C(=O)N[C@H](C#N)C[C@@H]1CCNC1=O)[C@H]1C=C[C@@H]2C1O` (mixture of isomers) [Example 90, (1R,2R,3S,6S,7S)—N-[(1S)-1-cyano-2-[(3S)-2-oxopyrrolidin-3-yl]ethyl]-4-[(2S)-3,3-dimethyl-2-(2,2,2-trifluoroacetamido)butanoyl]-10-hydroxy-4-azatricyclo[5.2.1.0^{2,6}]dec-8-ene-3-carboxamide], the IC50 is 0.02 to 0.2 µM in assay [1] and above 10 µM in assay [2]. Further, the concentration for a half-maximal effect (EC50) in assay [4] lay within 1 to 10 µM.
Turning to `CC(C)(C)[C@H](NC(=O)C(F)(F)F)C(=O)N1C[C@H]2[C@@H]([C@H]1C(=O)N[C@H](C#N)C[C@@H]1Oc3cnccc3NC1=O)[C@H]1C=C[C@@H]2C1` [Compound 113], the EC50 in assay [3] and in assay [4] was below 0.1 µM each time. For the same compound, the values for the IC50 in assay [1] and in assay [2] were below 0.02 µM and above 0.5 µM, respectively.
